Positions count from the first letter of the chain named. *1 amine or outer side, *2 acyl side, *3 side chain or, on linkers, in order; H or OH if unused. Where a SMILES comes first, the peptide text is derived from it. Side-chain parts run from the residue outwards. [ ]: non-standard residue; d: D form. The star is where a group is joined. γGlu = O=C(O)[C@H](CCC(=O)[*:2])N[*:1]; Stearoyl = CCCCCCCCCCCCCCCCCC(=O)*; Nle = CCCC[C@H](N)C(=O)O; AEEA = NCCOCCOCC(=O)O; Aib = CC(C)(N)C(=O)O
Tests used:
Type in all cases: cell-based
[1] = biological target: T1, RXFP1 (Homo sapiens, UniProt Q9HBX9); experiment: cAMP HTRF assay in OVCAR5 cells (endogenous RXFP1); design: they express significant endogenous levels of RXFP1 (determined by RT-PCR); endogenous in cells; host or cells: OVCAR5 (from NIH, NCI-60 panel)
T1 sequence (Q9HBX9 1-757): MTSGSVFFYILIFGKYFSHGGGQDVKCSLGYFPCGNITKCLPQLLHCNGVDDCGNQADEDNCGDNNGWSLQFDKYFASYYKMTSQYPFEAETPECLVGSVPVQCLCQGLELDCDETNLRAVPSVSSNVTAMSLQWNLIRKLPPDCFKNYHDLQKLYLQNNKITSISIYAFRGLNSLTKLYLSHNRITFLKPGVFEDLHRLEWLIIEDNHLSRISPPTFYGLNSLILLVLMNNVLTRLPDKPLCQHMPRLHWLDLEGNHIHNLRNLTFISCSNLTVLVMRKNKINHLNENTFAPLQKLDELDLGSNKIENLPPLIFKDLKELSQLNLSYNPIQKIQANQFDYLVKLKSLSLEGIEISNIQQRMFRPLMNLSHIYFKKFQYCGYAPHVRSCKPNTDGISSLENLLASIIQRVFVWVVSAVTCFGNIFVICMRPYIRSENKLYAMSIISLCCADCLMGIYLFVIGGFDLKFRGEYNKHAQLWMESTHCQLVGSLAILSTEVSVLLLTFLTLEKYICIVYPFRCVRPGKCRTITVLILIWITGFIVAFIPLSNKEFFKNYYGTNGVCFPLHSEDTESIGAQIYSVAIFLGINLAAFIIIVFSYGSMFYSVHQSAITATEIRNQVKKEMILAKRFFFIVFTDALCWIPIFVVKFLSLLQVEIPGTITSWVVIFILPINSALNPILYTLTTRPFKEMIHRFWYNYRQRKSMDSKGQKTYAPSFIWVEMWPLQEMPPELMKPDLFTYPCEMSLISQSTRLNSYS
Experimental: OVCAR5 cells were grown in complete medium (RPMI 1640 + 10% Fetal Calf serum + 1% Penicillin/Streptomycin) at 37 °C and 5% CO2 in a humidified incubator. OVCAR5 cells were detached with accutase for 5 min and were plated in 384-well plates at a density of 8000 cells/well.
(§1) Cells were plated in low-volume 384-well plates at a density of 4000 cells/well for EA.hy926_RXFP1 cells or 8000 cells/well for OVCAR5 cells in a final volume of 5 µL. The plates were briefly centrifuged at 800 rpm to allow the cell suspension to move to the bottom of the wells and then incubated for 24 h at 37 °C in 5% CO2. 5µL of the diluted compounds were then transferred in 384-well plate containing 5µL of cells in test medium. The assay plates were incubated for 30 min at 37 °C under 5% CO2. After 30 min the reaction was stopped by addition of HTRF revelation reagents with a multidrop dispenser. […]
(§2) After overnight incubation at room temperature, HTRF signal was read at 620 and 665 nm on Phera Star (BMG LAbtech) plate reader. The HTRF signal was calculated as follows: ratio HTRF = [(signal 665 nm)/(signal 620 nm)] × 10^4. […]
(§3) Relative EC50s (EC50rel) were determined with SAS procedure NLIN in SAS system release 9.4 under Unix via Biost@t-SPEED-LTS v2.4 internal software using the 4-parameter logistic model[47]. […]

[2] = biological target: T2, rat RXFP1 (Rattus norvegicus, UniProt Q6R6I6); experiment: cAMP HTRF assay in HEK_ratRXFP1 cells
T2 construct: expressed in transfected cells
T2 sequence (Q6R6I6 1-758): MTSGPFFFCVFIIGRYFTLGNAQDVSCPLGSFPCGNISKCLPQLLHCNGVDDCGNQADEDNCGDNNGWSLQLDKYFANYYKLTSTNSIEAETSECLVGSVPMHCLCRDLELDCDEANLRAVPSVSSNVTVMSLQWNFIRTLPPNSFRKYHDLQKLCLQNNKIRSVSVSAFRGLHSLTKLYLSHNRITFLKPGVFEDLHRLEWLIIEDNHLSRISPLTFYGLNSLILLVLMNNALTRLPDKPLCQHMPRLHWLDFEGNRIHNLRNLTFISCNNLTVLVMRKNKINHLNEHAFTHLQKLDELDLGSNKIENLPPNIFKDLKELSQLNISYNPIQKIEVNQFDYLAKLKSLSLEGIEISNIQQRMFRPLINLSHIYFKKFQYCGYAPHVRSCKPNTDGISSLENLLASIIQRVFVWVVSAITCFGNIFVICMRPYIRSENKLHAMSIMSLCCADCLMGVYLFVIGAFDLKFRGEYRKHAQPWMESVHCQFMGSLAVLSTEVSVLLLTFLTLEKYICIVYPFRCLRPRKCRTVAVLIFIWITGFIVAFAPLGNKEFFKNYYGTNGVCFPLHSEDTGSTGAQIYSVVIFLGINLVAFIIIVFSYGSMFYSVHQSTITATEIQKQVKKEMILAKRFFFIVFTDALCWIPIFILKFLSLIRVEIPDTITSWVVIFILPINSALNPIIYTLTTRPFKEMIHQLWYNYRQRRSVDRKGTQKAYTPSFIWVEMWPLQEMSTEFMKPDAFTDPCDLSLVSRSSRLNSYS

[3] = biological target: T1, RXFP1; experiment: cAMP HTRF assay in EA.hy926_hRXFP1 cells; design: expressed in transfected cells; host or cells: EA.hy926 (ATCC CRL-2922), lentiviral transduction, puromycin selection
Experimental: EA.hy926 or EA.hy926_RXFP1 were grown in complete growth medium (DMEM + 10% Fetal Calf serum + 1% Penicillin/Streptomycin + puromycin 0.5 µg/mL) at 37 °C and 5% CO2 in a humidified incubator. When cells reached 80–90% confluency, cells were detached from plastic using Trypsin–EDTA and were plated in 96 or 384-well plates according to the test.
as §1, §2, §3

[4] = biological target: T3, hRXFP1 (S69P/F76V) (Homo sapiens, UniProt Q9HBX9, F76V/S69P); experiment: cAMP production in HEK cells expressing hRXFP1 (S69P/F76V); conditions: hRXFP1 F76V-S69P dual mutant, n = 4 experiments in duplicate
T3 sequence (Q9HBX9 1-757 S69P/F76V): T1 sequence (Q9HBX9 1-757) with S69P, F76V
Experimental: HEK cells were stably transduced with lentiviral constructs (Vectalys, MOI 20, batches rV2.1A1.5057 B, rV2.1A1.5056 B and rV2.1A1.5059 B) containing a bicistronic vectors encoding hRXFP1 (S69P) or hRXFP1 (F76V) or hRXFP1 (S69P/F76V) under the EF1 promoter followed by an internal ribosome entry site (IRES) elements to express the neomycin antibiotic resistance gene for selection with 500 μg/mL Geneticin (Invitrogen, #10131-019). Three days post transduction, HEK cells were grown in the presence of Genetecin. Positive individual clones were selected and amplified, and cAMP readout (nM) was used as described for other cell types at a cell density of 8000 cells/well.

Compound | Emax ([1]; OVCAR-5, read-out: Emax (%) ± SEM cAMP) | Emax ([2]; read-out: Emax (%) ± SEM cAMP) | Emax ([3]; read-out: Emax (%) ± SEM cAMP) | Emax (%) ± SEM cAMP ([1]; OVCAR5 cells, % of 100 nM relaxin response, n = 6) | Emax (%) ± SEM cAMP ([2]; HEK_ratRXFP1 cells, % of 100 nM relaxin response, n = 6) | EC50 ([2]; HEK_ratRXFP1 cells, geometric mean of relative EC50 with 95% CI, n = 6) | Emax (%) ± SEM cAMP ([3]; EA.hy926_hRXFP1 cells, % of 100 nM relaxin response, n = 5) | cAMP response (efficacy) [4]
CCCCCCCCCCCCCCCCCC(=O)N[C@@H](CCC(=O)N[C@@H](CCC(=O)N[C@@H](CCC(=O)NCCOCCOCC(=O)NCCOCCOCC(=O)NCCOCCOCC(=O)NCCCC[C@H](NC(=O)[C@H](CCCCNC(C)=O)NC(=O)[C@H](CCCCN)NC(=O)[C@H](CCCNC(=N)N)NC(=O)C(C)(C)NC(=O)[C@H](CO)NC(=O)[C@H](Cc1c[nH]c2ccccc12)NC(=O)[C@@H](NC(=O)[C@H](CO)NC(=O)[C@H](CCCC)NC(=O)CNC(=O)[C@H](CCC(=O)O)NC(=O)C(C)(C)NC(=O)C(C)(C)NC(=O)[C@@H](NC(=O)[C@H](CCCCNC(C)=O)NC(=O)[C@H](C)NC(=O)[C@H](CCCNC(=N)N)NC(=O)[C@@H](NC(=O)[C@H](CCCCN)NC(=O)[C@H](CCC(=O)O)NC(=O)[C@H](CCCNC(=N)N)NC(=O)CNC(=O)[C@H](CCC(=O)O)NC(=O)[C@H](CC(C)C)NC(C)=O)C(C)C)[C@@H](C)CC)[C@@H](C)O)C(N)=O)C(=O)O)C(=O)O)C(=O)O [SA10SC-RLX] (Ac-LEGREKVRAK(Ac)I[Aib][Aib]EG[Nle]STWS[Aib]RKK(Ac)K([AEEA-AEEA-AEEA-γGlu-γGlu-γGlu-Stearoyl])-NH2) | 84.1 ± 1.1% | 68.5 ± 2.8% | 93.7 ± 1.1% |  |  |  |  | 
relaxin |  |  |  | 96.2 ± 0.8% | 95.6 ± 0.8% | 1.4 nM | 100.1 ± 0.7% | reduced in all RXFP1 mutants compared to the wild type construct

— PMC9705314, “Characterization of a new potent and long-lasting single chain peptide agonist of RXFP1 in cells and in vivo translational models” (Scientific Reports, 2022)
